In US6368621B1, “Preparation in particular for use as a medication and/or food supplement” (Peter Greither, priority 1999, dated 2002):

Assay: Determining the Kpart value: distribution between n-octanol and aqueous tris hydrochloride
Type: physicochemical
Settings: n-octanol / aqueous tris hydrochloride 20 mM, pH 7.4, 20° C.; for distribution coefficient Kpart, metal-free compound: spectrophotometry 220 to 340 nm; for distribution coefficient Kpart, iron complex [FeIII-(compound)3]: spectrophotometry 340 to 640 nm, 3:1 iron(III) complex of the compound
Text: A further factor which plays a role with the bio-availability of iron is the ability of the iron complexes to penetrate biological membranes. One of the possible indicators for this membrane permeation is Kpart. Kpart describes the ratio between the concentration of the compound in n-octanol to the concentration of the compound in the aqueous phase. Although the iron complex as well as its corresponding metal-free compound should be able to enter through the biomembrane, both should also have a certain degree of water solubility. In the course of the present invention the iron complexes preferably have Kpart values in a region between 0.02 and 6.0, preferred between 0.1 and 4.0 and even more preferred between 0.2 and 1.0. The metal-free complex preferably has Kpart values between 0.05 and 3.0, preferred between 0.1 and 2.0 and even more preferred between 0.2 and 1.0.
Determining the Kpart value:
Determined is the distribution in each case for the iron complex as well as for the corresponding metal-free compound between n-octanol and aqueous tris hydrochloride (20 mM, pH 7.4; tris: 2 amino-2-hydroxymethylpropane-1,3-diol). The concentration of the substances in the respective phase is measured at 20° C. by way of spectrophotometry. 5 ml of a 10^−4M aqueous solution of iron complex and metal-free compound are mixed with 5 ml of n-octanol for one minute. The aqueous n-octanol mixture arising with this is centrifuged at 1,000 G for 30 seconds. The two resulting phases are separated from one another for evaluating the concentration. The metal-free compound is measured in a region of 220 to 340 nanometers whilst for evaluating the concentration of the corresponding iron complex a region between 340 and 640 nanometers is selected. These regions also apply to the 3:1 maltol-iron(III)-complex.

Row | distribution coefficient Kpart, metal-free compound | distribution coefficient Kpart, iron complex [FeIII-(compound)3] | SMILES
1 | 0.44 | 0.10 | Cn1cccc(O)c1=O [3-hydroxy-1-methylpyride-2-one]
2 | 0.52 | 1.06 | CCn1cccc(O)c1=O [1-ethyl-3-hydroxypyri-2-one]
3 | 0.66 | 0.5 | Cc1occc(=O)c1O [3-hydroxy-2-methyl-4 pyrone]
